Assays:
[1] = Cmax in mouse at 10 mg/kg, po; assay type: ADME, organism-based; set-up: dose 10 mg/kg, route oral; settings: in vivo
[2] = system: Canis familiaris; assay: Ratio of Cmax to Cmin in dog at 1 mg/kg, po; assay type: ADME, organism-based, Canis lupus familiaris; settings: in vivo
[3] = Tmax in dog at 1 mg/kg, po; assay type: ADME, organism-based, Canis lupus familiaris; settings: in vivo
[4] = Dissociation constant, pKa of the compound; assay type: physicochemical
[5] = system: Cynomolgus monkey; assay: Ratio of Cmax to Cmin in cynomolgus monkey at 5 mg/kg, po; assay type: ADME, organism-based, Macaca fascicularis; settings: in vivo
[6] = system: Mus musculus; assay: Reduction in overall disease severity in po dosed C57BL/6 mouse experimental autoimmune encephalomyelitis model of multiple sclerosis administered as qd for 24 days started from day of immunization measured 3 times per week of compound dosing; assay type: functional, organism-based
[7] = Mean residence time in mouse at 2 mg/kg, iv; assay type: ADME, organism-based; settings: in vivo
[8] = Permeability of the compound at pH 7.4 by PAMPA; assay type: ADME; settings: read-out: permeability
[9] = system: Mus musculus; assay: Ratio of Cmax to Cmin in mouse at 10 mg/kg, po; assay type: ADME, organism-based; settings: in vivo
[10] = biological target: T1, Cytochrome P450 1A2 (Homo sapiens, UniProt P05177); assay: Inhibition of CYP1A2 (unknown origin); assay type: ADME
T1 sequence (P05177 whole entry): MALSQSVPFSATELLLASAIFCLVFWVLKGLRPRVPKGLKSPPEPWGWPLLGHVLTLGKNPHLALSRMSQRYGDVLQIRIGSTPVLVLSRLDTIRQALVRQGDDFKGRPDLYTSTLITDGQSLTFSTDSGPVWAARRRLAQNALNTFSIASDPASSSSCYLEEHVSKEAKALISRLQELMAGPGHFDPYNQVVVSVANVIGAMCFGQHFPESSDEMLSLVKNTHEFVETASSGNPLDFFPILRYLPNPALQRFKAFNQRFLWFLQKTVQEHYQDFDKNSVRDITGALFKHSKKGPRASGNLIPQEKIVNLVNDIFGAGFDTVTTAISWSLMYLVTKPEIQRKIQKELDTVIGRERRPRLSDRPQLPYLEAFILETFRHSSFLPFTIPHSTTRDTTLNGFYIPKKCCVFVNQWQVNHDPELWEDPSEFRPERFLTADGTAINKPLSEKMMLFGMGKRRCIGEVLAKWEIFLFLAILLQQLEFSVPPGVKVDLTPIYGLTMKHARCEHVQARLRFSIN

[11] = system: Rattus norvegicus; assay: Reduction of blood lymphocyte level in po dosed Lewis rat measured at 4 to 24 hrs by hematology analyzer; assay type: functional, organism-based
[12] = Clearance in cynomolgus monkey at 2 mg/kg, iv; assay type: ADME, organism-based, Macaca fascicularis; settings: in vivo
[13] = AUC in rat at 5 mg/kg, po; assay type: ADME, organism-based; settings: in vivo
[14] = biological target: Voltage-gated inwardly rectifying potassium channel KCNH2 (Homo sapiens, UniProt Q12809); assay: Inhibition of human ERG by patch clamp method
Sequence of Voltage-gated inwardly rectifying potassium channel KCNH2 (Q12809 whole entry): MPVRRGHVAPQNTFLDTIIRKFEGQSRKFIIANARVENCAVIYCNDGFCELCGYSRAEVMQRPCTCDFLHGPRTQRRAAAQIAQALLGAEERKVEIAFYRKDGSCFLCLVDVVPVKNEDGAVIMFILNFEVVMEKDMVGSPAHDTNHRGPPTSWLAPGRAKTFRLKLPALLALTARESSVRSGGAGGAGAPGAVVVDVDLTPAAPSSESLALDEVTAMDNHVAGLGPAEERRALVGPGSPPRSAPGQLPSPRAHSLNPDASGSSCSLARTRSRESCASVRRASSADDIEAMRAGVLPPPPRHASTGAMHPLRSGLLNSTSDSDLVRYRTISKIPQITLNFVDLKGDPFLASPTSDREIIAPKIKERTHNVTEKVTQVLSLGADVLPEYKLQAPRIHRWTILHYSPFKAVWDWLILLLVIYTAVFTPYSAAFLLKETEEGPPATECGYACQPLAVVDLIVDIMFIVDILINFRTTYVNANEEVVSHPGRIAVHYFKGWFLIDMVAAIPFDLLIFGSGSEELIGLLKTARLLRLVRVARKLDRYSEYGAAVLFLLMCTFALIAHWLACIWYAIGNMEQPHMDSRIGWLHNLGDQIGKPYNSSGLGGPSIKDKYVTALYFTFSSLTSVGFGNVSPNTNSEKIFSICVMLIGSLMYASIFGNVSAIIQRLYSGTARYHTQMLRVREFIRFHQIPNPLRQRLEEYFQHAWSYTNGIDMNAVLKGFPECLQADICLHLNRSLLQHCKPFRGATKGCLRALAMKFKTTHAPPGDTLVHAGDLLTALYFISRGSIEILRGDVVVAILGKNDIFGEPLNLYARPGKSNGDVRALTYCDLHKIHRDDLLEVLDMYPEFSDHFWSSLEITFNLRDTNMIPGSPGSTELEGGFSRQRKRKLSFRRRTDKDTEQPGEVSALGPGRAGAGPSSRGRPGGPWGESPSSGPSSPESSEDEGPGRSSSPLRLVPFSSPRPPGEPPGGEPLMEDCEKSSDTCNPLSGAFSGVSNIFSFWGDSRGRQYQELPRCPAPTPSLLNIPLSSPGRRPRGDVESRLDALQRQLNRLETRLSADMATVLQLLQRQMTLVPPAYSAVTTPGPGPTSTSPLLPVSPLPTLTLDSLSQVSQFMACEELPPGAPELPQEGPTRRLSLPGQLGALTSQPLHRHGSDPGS

[15] = Mean residence time in cynomolgus monkey at 2 mg/kg, iv; assay type: ADME, organism-based, Macaca fascicularis; settings: in vivo
[16] = biological target: T2, Sphingosine 1-phosphate receptor 1 (Homo sapiens, UniProt P21453); assay: Induction of internalization of C-terminal GFP-fused human S1P1 receptor expressed in CHO […] after 50 mins; assay type: cell-based
T2 sequence (P21453 whole entry, the tested form may be a part): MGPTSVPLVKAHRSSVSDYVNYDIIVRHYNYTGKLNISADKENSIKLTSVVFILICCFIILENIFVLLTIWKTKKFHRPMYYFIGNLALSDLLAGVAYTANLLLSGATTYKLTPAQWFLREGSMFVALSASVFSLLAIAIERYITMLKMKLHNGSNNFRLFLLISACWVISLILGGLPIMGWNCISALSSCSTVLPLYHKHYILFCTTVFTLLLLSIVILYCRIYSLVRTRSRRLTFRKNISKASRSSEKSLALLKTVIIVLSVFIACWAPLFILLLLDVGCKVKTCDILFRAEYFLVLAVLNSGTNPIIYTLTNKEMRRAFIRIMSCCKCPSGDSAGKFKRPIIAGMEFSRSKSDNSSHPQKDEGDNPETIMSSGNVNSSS

[17] = Tmax in rat at 5 mg/kg, po; assay type: ADME, organism-based; settings: in vivo
[18] = biological target: T3, Cytochrome P450 2B6 (Homo sapiens, UniProt P20813); assay: Inhibition of CYP2B6 (unknown origin); assay type: ADME
T3 sequence (P20813 whole entry): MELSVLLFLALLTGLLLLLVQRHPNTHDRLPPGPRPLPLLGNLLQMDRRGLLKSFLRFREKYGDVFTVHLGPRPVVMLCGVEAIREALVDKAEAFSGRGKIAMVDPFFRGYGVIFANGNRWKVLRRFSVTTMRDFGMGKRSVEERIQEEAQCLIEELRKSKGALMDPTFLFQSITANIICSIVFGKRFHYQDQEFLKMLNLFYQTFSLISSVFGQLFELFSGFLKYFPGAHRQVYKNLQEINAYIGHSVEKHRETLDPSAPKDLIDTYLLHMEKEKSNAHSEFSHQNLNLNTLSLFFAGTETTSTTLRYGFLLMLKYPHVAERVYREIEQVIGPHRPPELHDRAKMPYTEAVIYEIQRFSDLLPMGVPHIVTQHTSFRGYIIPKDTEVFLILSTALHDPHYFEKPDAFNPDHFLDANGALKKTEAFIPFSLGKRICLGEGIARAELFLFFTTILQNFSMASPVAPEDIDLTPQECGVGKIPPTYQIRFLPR

[19] = system: Rattus norvegicus; assay: Antiarthritic activity in po dosed complete Freund's adjuvant-induced Lewis rat arthritis model assessed as inhibition of bone resorption administered as qd for 21 days started from day of immunization; assay type: functional, organism-based
[20] = system: Rattus norvegicus; assay: Reduction of blood lymphocyte level in Lewis rat at 0.3 mg/kg, po measured at 24 hrs by hematology analyzer relative to vehicle-treated control; assay type: functional; set-up: scale not given: the % may be the effect or the level left
[21] = system: Mus musculus; assay: Inhibition of inflammation in spinal cord of po dosed C57BL/6 mouse experimental autoimmune encephalomyelitis model of multiple sclerosis administered as qd for 24 days started from day of immunization; assay type: functional, organism-based
[22] = Cmax in rat at 5 mg/kg, po; assay type: ADME, organism-based; set-up: dose 5 mg/kg, route oral; settings: in vivo
[23] = biological target: Cytochrome P450 2C19 (Homo sapiens, UniProt P33261); assay: Inhibition of CYP2C19 (unknown origin); assay type: ADME
Sequence of Cytochrome P450 2C19 (P33261 whole entry): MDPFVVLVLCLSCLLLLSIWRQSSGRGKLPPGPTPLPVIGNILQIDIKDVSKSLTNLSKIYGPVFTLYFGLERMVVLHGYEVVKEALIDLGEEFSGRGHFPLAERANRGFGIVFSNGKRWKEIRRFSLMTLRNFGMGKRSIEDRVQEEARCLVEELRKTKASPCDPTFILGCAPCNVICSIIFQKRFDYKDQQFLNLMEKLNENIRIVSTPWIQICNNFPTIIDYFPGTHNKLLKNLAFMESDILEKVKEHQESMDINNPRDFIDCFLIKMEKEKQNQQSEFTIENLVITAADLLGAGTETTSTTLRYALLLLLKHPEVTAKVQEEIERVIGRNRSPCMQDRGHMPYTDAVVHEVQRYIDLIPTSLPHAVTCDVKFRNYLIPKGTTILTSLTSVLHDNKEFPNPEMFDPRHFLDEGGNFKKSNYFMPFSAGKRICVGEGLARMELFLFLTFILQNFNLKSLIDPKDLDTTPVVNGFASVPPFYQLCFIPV

[24] = system: Rattus norvegicus; assay: Reduction of blood lymphocyte level in Lewis rat at 0.03 mg/kg, po measured at 24 hrs by hematology analyzer relative to vehicle-treated control; assay type: functional; set-up: scale not given: the % may be the effect or the level left
[25] = Plasma concentration in Lewis rat at 1 mg/kg, po measured at 24 hrs; assay type: ADME, organism-based
[26] = system: Rattus norvegicus; assay: Clearance in rat at 2 mg/kg, iv relative to hepatic blood flow; assay type: ADME, organism-based; settings: in vivo
[27] = AUC in dog at 1 mg/kg, po; assay type: ADME, organism-based, Canis lupus familiaris; settings: in vivo
[28] = biological target: T2, Sphingosine 1-phosphate receptor 1; assay: Induction of internalization of C-terminal GFP-fused human S1P1 receptor expressed in CHO […] assessed as remaining receptor level in cell membrane at 4.6 nM preincubated for 50 mins followed by compound washout measured at 4 hrs relative to control; assay type: cell-based
[29] = Half life in cynomolgus monkey at 2 mg/kg, iv; assay type: ADME, organism-based, Macaca fascicularis; settings: in vivo
[30] = system: Mus musculus; assay: Induction of delay in disease onset in po dosed C57BL/6 mouse experimental autoimmune encephalomyelitis model of multiple sclerosis administered as qd for 24 days started from day of immunization measured 3 times per week of compound dosing; assay type: functional, organism-based
[31] = species on record: Homo sapiens; assay: Inhibition of sodium channel (unknown origin) at 10 uM by patch clamp method relative to control

With `O=C(O)C1CN(Cc2ccc(-c3noc(-c4onc(-c5ccccc5)c4C(F)(F)F)n3)cc2)C1` the Cmax [1] was 31 µM, the Ratio [2] was 9 and the Tmax [3] was 8.9 h. For the same molecule, the pKa [4] was 3.7, the Ratio [5] was 37 and the Activity [6] was “Dose-dependent effect”. The MRT [7] was 14 h, the Papp [8] was 103 ×10⁻⁶ cm/s and the Ratio [9] was 2. For the same molecule, the IC50 [10] was greater than 40 µM, the Activity [11] was “Dose-dependent effect” and the clearance [12] was 5.2 mL/min/kg. For the same molecule, the AUC [13] was 44 µM·h, the IC50 [14] was 18 µM and the MRT [15] was 2.2 h. The EC50 [16] was 0.00027 µM, the Tmax [17] was 3.3 h and the IC50 [18] was greater than 40 µM. For the same molecule, the inhibition [19] was “Dose-dependent effect”, the Activity [20] was 73% and the inhibition [21] was “Dose-dependent effect”. It also gave a Cmax [22] of 3.9 µM, an IC50 [23] greater than 40 µM and an Activity [24] of 45%. It also gave a concentration at 24 h [25] of 0.7 µM, a CL [26] of 2.4% and an AUC [27] of 11 µM·h. The Activity [28] was 20%, the half-life [29] was 3 h and the Activity [30] was “Dose-dependent effect”. The inhibition [31] was less than 5%.

Source: ChEMBL document CHEMBL3797106, “Potent and Selective Agonists of Sphingosine 1-Phosphate 1 (S1P1): Discovery and SAR of a Novel Isoxazole Based Series” (J Med Chem, 2016)
